Patent US20260241012A1, “1,8-NAPHTHYRIDIN-2-ONE HETEROBIFUNCTIONAL BCL6 DEGRADERS” (Treeline Biosciences, Inc., priority 2022, published 2026)

Target: T1, N-terminal HiBiT tagged BCL6 (Homo sapiens, UniProt P41182)
T1 construct: expressed in transfected cells; host or cells: HT1080 (ATCC CCL-121), stably transduced with lentivirus pLV-UBC-N-HiBiT-BCL6-PGK-puro
Experiment: HiBiT based degradation assay
Assay type: cell-based
Settings: HT1080 cells expressing N-terminal HiBiT tagged BCL6, 5 hours of incubation; for Ymin (5 hr): BCL6 degradation normalized with DMSO control; for DC50: four-parameter logistic model, read-out: EC50 (5 hr)
From the text: Human BCL6 protein coding open reading frame fused with N-terminal HiBiT coding sequence was synthesized from Integrated DNA Technologies (IDT). Next, the N-HiBiT-BCL6 sequence was cloned into pLV-UBC-PGK-Puro, a lentivirus plasmid purchased from Vectorbuilder, to generate pLV-UBC-N-HiBiT-BCL6-PGK-puro. Lentiviral particles were generated from Lenti-X™ 293T cells (Clontech) by co-transfection of pLV-UBC-N-HiBiT-BCL6-PGK-puro plasmids and lentiviral packaging plasmid mix (Cellecta). HT1080 [HT1080] (ATCC CCL-121) cells were infected with the lentivirus, and HT1080 cells stably integrated with the lentiviral vectors were established by incubation with 1 μg/mL puromycin (Thermofisher).
HT1080 cells expressing N-terminal HiBiT tagged BCL6 were dispensed into a 384-well plate pre-spotted with compounds at varying concentrations. Five thousand cells were seeded into each well in 40 μL of RPMI 1640 media plus 10% Fetal Bovine Serum (10082-147, Thermofisher). After 5 hours of incubation at 37° C. with 5% CO2, 30 μL of the NANO-GLOR HiBiT Lytic Detection System working solution (Promega) was added to each well and incubated at room temperature for 15 min. After incubation, luminescence was read on a PHERAstar FSX Plate Reader (BMG). BCL6 degradation at each indicated concentration was normalized with DMSO control. The BCL6 degradation curves were plotted using a four-parameter logistic model.

Ymin (5 hr) | DC50 [nM] | SMILES
++ (50% ≤ Ymin < 70%) | 10 to 100 | CNC(=O)COc1cc2cc(Nc3nc(N4CCN(C[C@H]5CCN(c6ccc7c(C8CCC(=O)NC8=O)nn(C)c7c6)C5)CC4)ncc3Cl)cnc2n(C(C)C)c1=O (stereo partly drawn) [Compound 228b, 2-((6-((5-chloro-2-(4-(((3R)-1-(3-(2,6-dioxopiperidin-3-yl)-1-methyl-1H-indazol-6-yl)pyrrolidin-3-yl)methyl)piperazin-1-yl)pyrimidin-4-yl)amino)-1-isopropyl-2-oxo-1,2-dihydro-1,8-naphthyridin-3-yl)oxy)-N-methylacetamide]
+++ (30% ≤ Ymin < 50%) | < 10 | CNC(=O)COc1cc2cc(Nc3nc(N4CC5(CC[C@H](Nc6ccc7c(C8CCC(=O)NC8=O)nn(C)c7c6)[C@H](C)C5)C4)ncc3Cl)cnc2n(C(C)C)c1=O (relative stereo) [Compound 180b, rel-2-((6-((5-chloro-2-((6R,7S)-7-((3-(2,6-dioxopiperidin-3-yl)-1-methyl-1H-indazol-6-yl)amino)-6-methyl-2-azaspiro[3.5]nonan-2-yl)pyrimidin-4-yl)amino)-1-isopropyl-2-oxo-1,2-dihydro-1,8-naphthyridin-3-yl)oxy)-N-methylacetamide]
++++ (Ymin < 30%) | < 10 | CNC(=O)COc1cc2cc(Nc3nc(N4CC5(CC[C@@H](Oc6ccc7c(C8CCC(=O)NC8=O)nn(C)c7c6)[C@@H](C)C5)C4)ncc3Cl)cnc2n(C(C)C)c1=O (relative stereo) [Compound 185b, 2-[[6-[[5-chloro-2-[(6S,7R)-7-[3-(2,6-dioxo-3-piperidyl)-1-methyl-indazol-6-yl]oxy-6-methyl-2-azaspiro[3.5]nonan-2-yl]pyrimidin-4-yl]amino]-1-isopropyl-2-oxo-1,8-naphthyridin-3-yl]oxy]-N-methyl-acetamide]
++++ (Ymin < 30%) | < 10 | CNC(=O)COc1cc2cc(Nc3nc(N4CC5(CC[C@H](Nc6ccc7c(C8CCC(=O)NC8=O)nn(C)c7c6)[C@@H](C)C5)C4)ncc3Cl)cnc2n(C(C)C)c1=O (relative stereo) [Compound 180c, rel-2-((6-((5-chloro-2-((6S,7S)-7-((3-(2,6-dioxopiperidin-3-yl)-1-methyl-1H-indazol-6-yl)amino)-6-methyl-2-azaspiro[3.5]nonan-2-yl)pyrimidin-4-yl)amino)-1-isopropyl-2-oxo-1,2-dihydro-1,8-naphthyridin-3-yl)oxy)-N-methylacetamide]
++++ (Ymin < 30%) | < 10 | CNC(=O)COc1cc2cc(Nc3nc(N4CC5(CC[C@H](Nc6ccc7c(C8CCC(=O)NC8=O)nn(C)c7c6)[C@@H](C(F)(F)F)C5)C4)ncc3Cl)cnc2n(C(C)C)c1=O (relative stereo) [Compound 221b, rel-2-((6-((5-chloro-2-((6S,7S)-7-((3-(2,6-dioxopiperidin-3-yl)-1-methyl-1H-indazol-6-yl)amino)-6-(trifluoromethyl)-2-azaspiro[3.5]nonan-2-yl)pyrimidin-4-yl)amino)-1-isopropyl-2-oxo-1,2-dihydro-1,8-naphthyridin-3-yl)oxy)-N-methylacetamide]

The remaining lines, values behind:

SMILES | Ymin (5 hr) | DC50 [nM]
CNC(=O)COc1cc2cc(Nc3nc(N4CC5(CCC(Oc6ccc7c(C8CCC(=O)NC8=O)nn(C)c7c6)CC5)C4)ncc3Cl)cnc2n(C(C)C)c1=O (stereo not drawn) [Compound 183, 2-[[6-[[5-chloro-2-[7-[3-(2,6-dioxo-3-piperidyl)-1-methyl-indazol-6-yl]oxy-2-azaspiro[3.5]nonan-2-yl]pyrimidin-4-yl]amino]-1-isopropyl-2-oxo-1,8-naphthyridin-3-yl]oxy]-N-methyl-acetamide] | ++++ (Ymin < 30%) | < 10
CNC(=O)COc1cc2cc(Nc3nc(N4CCN(CC5CCN(c6ccc7c(C8CCC(=O)NC8=O)nn(C)c7c6)CC5)CC4)ncc3Cl)cnc2n(C)c1=O (stereo not drawn) [Compound 107, 2-((6-((5-chloro-2-(4-((1-(3-(2,6-dioxopiperidin-3-yl)-1-methyl-1H-indazol-6-yl)piperidin-4-yl)methyl)piperazin-1-yl)pyrimidin-4-yl)amino)-1-methyl-2-oxo-1,2-dihydro-1,8-naphthyridin-3-yl)oxy)-N-methylacetamide] | +++ (30% ≤ Ymin < 50%) | < 10
CNC(=O)COc1cc2cc(Nc3nc(N4CC5(CCC(Nc6c(F)ccc7c(C8CCC(=O)NC8=O)nn(C)c67)CC5)C4)ncc3Cl)cnc2n(C(C)C)c1=O (stereo not drawn) [Compound 222, 2-[[6-[[5-chloro-2-[7-[[3-(2,6-dioxo-3-piperidyl)-6-fluoro-1-methyl-indazol-7-yl]amino]-2-azaspiro[3.5]nonan-2-yl]pyrimidin-4-yl]amino]-1-isopropyl-2-oxo-1,8-naphthyridin-3-yl]oxy]-N-methyl-acetamide] | ++ (50% ≤ Ymin < 70%) | 10 to 100
CNC(=O)COc1cc2cc(Nc3nc(N4CCC(CN5CCN(c6ccc7c(C8CCC(=O)NC8=O)nn(C)c7c6)CC5)CC4)ncc3Cl)cnc2n(C)c1=O (stereo not drawn) [Compound 133, 2-((6-((5-chloro-2-(4-((4-(3-(2,6-dioxopiperidin-3-yl)-1-methyl-1H-indazol-6-yl)piperazin-1-yl)methyl)piperidin-1-yl)pyrimidin-4-yl)amino)-1-methyl-2-oxo-1,2-dihydro-1,8-naphthyridin-3-yl)oxy)-N-methylacetamide] | ++++ (Ymin < 30%) | < 10
CNC(=O)COc1cc2cc(Nc3nc(N4CCC(CN5C[C@@H]6C[C@H]5CN6c5cccc6c(C7CCC(=O)NC7=O)nn(C)c56)CC4)ncc3Cl)cnc2n(C(C)C)c1=O (stereo partly drawn) [Compound 175b, 2-[[6-[[5-chloro-2-[4-[[(1S,4S)-5-[3-(2,6-dioxo-3-piperidyl)-1-methyl-indazol-7-yl]-2,5-diazabicyclo[2.2.1]heptan-2-yl]methyl]-1-piperidyl]pyrimidin-4-yl]amino]-1-isopropyl-2-oxo-1,8-naphthyridin-3-yl]oxy]-N-methyl-acetamide] | +++ (30% ≤ Ymin < 50%) | < 10
CNC(=O)COc1cc2cc(Nc3nc(N4CCC(Oc5ccc6c(C7CCC(=O)NC7=O)nn(C)c6c5)CC4)ncc3Cl)cnc2n(C(C)C)c1=O (stereo not drawn) [Compound 164, 2-[[6-[[5-chloro-2-[4-[3-(2,6-dioxo-3-piperidyl)-1-methyl-indazol-6-yl]oxy-1-piperidyl]pyrimidin-4-yl]amino]-1-isopropyl-2-oxo-1,8-naphthyridin-3-yl]oxy]-N-methyl-acetamide] | +++ (30% ≤ Ymin < 50%) | < 10
CNC(=O)COc1cc2cc(Nc3nc(N4CCN(CC5CCN(c6cccc7c(C8CCC(=O)NC8=O)nn(C)c67)CC5)CC4)ncc3Cl)cnc2n(C)c1=O (stereo not drawn) [Compound 101, 2-((6-((5-chloro-2-(4-((1-(3-(2,6-dioxopiperidin-3-yl)-1-methyl-1H-indazol-7-yl)piperidin-4-yl)methyl)piperazin-1-yl)pyrimidin-4-yl)amino)-1-methyl-2-oxo-1,2-dihydro-1,8-naphthyridin-3-yl)oxy)-N-methylacetamide] | ++++ (Ymin < 30%) | < 10
